Here are results for three molecules from article PMC10336128, “In vitro efficacy of different PEGylation designs on cathelicidin-like peptide with high antibacterial and antifungal activity” (Scientific Reports, 2023).

Where two headings read alike, the source gives them in different places. No end group written: not given here.

Series [1] relates to VRE-faecium ATCC BAA-2316. The series can be described thus: organism not typed. Type of series: cell-based, vancomycin-resistant Enteroccus faecium. The method, then:
(§1) Staphylococcus aureus (S. aureus ATCC 25923), Escherichia coli (E. coli ATCC 25922), Pseudomonas aeruginosa (P. aeruginosa ATCC 27853), Candida albicans (C. albicans ATCC 10231), methicillin-resistant S. aureus (MRSA, ATCC 33591) and vancomycin-resistant Enteroccus faecium (VRE-faecium, ATCC BAA-2316) were grown in MHA at 37 °C, overnight. A colony was then selected and transferred to MHB. Each bacterial solution in the MHB was adjusted to 0.5 McFarland with OD600 value between 0.08 and 0.1 using UV–Vis spectrophotometer (NanoDrop™ One/OneC Microvolume, Thermo Scientific). Afterward, 0.5 McFarland bacteria cultures were diluted in MHB at a ratio of 1:100. The peptide/conjugate concentration was quantified using a UV–Vis spectrophotometer at 214 nm. Serial dilutions of peptide and conjugates (1024–0.5 µg/mL) were prepared in MHB with a total volume of 95 µL in a round-bottom 96-well plate. Of the prepared bacterial suspensions, 5 µL was added into sample dilutions in each prepared well. Ampicillin (GeneMark) was used as a positive control and bacterial solution alone was used as a negative control. All 96-well plates were incubated overnight at 37 °C, and all samples were prepared in triplicate. Then, samples were measured at 600 nm using a microplate reader (Gen5 Synergy HT BioTek, USA)[31].

A further series relates to C. albicans ATCC 10231. Kind of series: microbe, parasite or virus in culture. It counts as cell-based, Candida albicans. The method, then:
as §1

For another series, the system named is MRSA ATCC 33591. The series can be described thus: microbe, parasite or virus in culture. It counts as cell-based, methicillin-resistant S. aureus. The method, then:
as §1

Another series relates to P. aeruginosa ATCC 27853. The series can be described thus: microbe, parasite or virus in culture. Type of series: cell-based, Pseudomonas aeruginosa. Here is the method:
as §1

Another series has as its system S. aureus ATCC 25923. The series can be described thus: microbe, parasite or virus in culture. It counts as cell-based, Staphylococcus aureus. Here is the method:
as §1

A further series relates to E. coli ATCC 25922. Kind of series: microbe, parasite or virus in culture. Type of series: cell-based, Escherichia coli. The method, then: as §1
In another series the test system is plasma proteases. Type of series: in vitro ADME, human. The method, then: To separate human plasma, EDTA-treated fresh human blood from a healthy donor (Acibadem Mehmet Ali Aydinlar University, Istanbul, Turkey) was centrifuged at 1500 rpm for 5 min, and the supernatant was collected. The peptide and conjugates were mixed with human plasma to a final concentration of 0.1 mg/mL (1.7 µL, 2048 µg/mL sample completed with plasma) and incubated at 37 °C, 1500 rpm in a shaker. Aliquots were collected after 0 h, 6 h, and 24 h incubation and stored at – 20 °C[32]. 5 µL protease inhibitor was added onto 35 µL aliquots.
S. aureus ATCC 25923 was cultured in MHA overnight at 37 °C. A colony was then selected and transferred to MHB. The bacterial solution was adjusted to 0.5 McFarland with OD600 value between 0.08 and 0.1 using UV–Vis spectrophotometer and diluted to a 1:200 ratio in MHB. 5 µL of the bacterial suspension was added into serial dilutions of aliquots prepared in MHB (40 µL of total volume) in a round-bottom 96-well plate and incubated overnight at 37 °C. Afterward, 96-well plates were measured at 600 nm using a microplate reader. All samples were prepared in triplicate.

Series [2] deals with human erythrocytes. Kind of series: Cell-associated hemolytic activity assay (with S. aureus ATCC 25923). Type of series: cell-based. As to conditions: human erythrocytes plus S. aureus ATCC 25923 (5 µL of 1.5 × 10^6 CFU/mL), tris-saline, 37 °C, read at 414 nm, three replicates. Here is the method:
(§2) 300 µL of fresh human blood (Acibadem Mehmet Ali Aydinlar University, Istanbul, Turkey) was suspended in 20 mL of sterile tris-saline (150 mM NaCl, 10 mM Tris, pH 7.2) solution and centrifuged 3 times at 1500 rpm for 5 min. Pellet was dissolved with 100 mL of tris-saline and 100 µL blood mix was added into each well of a round-bottom 96-well plate. Serial peptide/conjugate dilutions (1024–0.5 µg/mL) prepared in tris-saline (100 µL of total volume) in triplicate were added on top of the blood mix. 10% DMSO prepared in Triton X-100 treated with blood mix used as a positive control, and the blood mix itself was used as a negative control. The samples were kept on separate round-bottom 96-well plates at 37 °C for 30 min and 1 h, respectively, to examine two different conditions. After incubations, the 96-well plates were centrifuged at 1500 rpm for 10 min. The supernatants were then transferred into a new round-bottom 96-well plate for measurement at 414 nm using a microplate reader. The lysis percentage of the peptide/conjugate was calculated using Eq. (1) as follows:1 Hemolysis%=Sample414nm-Negativecontrol414nm/Positivecontrol414nm-Negativecontrol414nm×100
S. aureus ATCC 25923 bacterial solution in MHB was prepared as in the minimum inhibitory concentration (MIC) experiment. […]

Series [3] relates to human erythrocytes. The series can be described thus: Hemolytic activity assay. It counts as cell-based. The method, then:
as §2

The next series in a line: MTT cytotoxicity assay. Type of series: cell-based. The following applies: for CC50 at 24 h: human, HaCaT keratinocyte cells; for IC50 at 24 h: mouse. Here is the method:
Human skin keratinocyte (HaCaT, HEKa, PCS-200-011™, ATCC) and mouse embryonic fibroblast (3T3, CRL-1658™, ATCC) cells were counted to 5 × 10^4 cells/well in 100 µL of DMEM containing 10% FBS, and 1% Pen/Strep antibiotics were placed in a flat-bottom 96-well plate and incubated in 5% CO2 at 37 °C. After 24 h, the medium on the attached cells was discarded. Serial peptide/conjugate dilutions (1024–0.5 µg/mL) prepared in complete DMEM (100 µL of total volume) in triplicate were added to the cell-seeded plates and incubated in 5% CO2 at 37 °C for 24 h. Cytotoxicity was determined using the 3-(4, 5-dimethylthiazol-2-yl)-2, 5-diphenyltetrazolium bromide assay kit (MTT, Cell Proliferation Kit, Roche) following the kit procedure and measured at 550 nm and 690 nm using a microplate reader. Cytotoxicity was calculated according to the cell control samples in complete DMEM.
(In general: Tetrazolium assays rely on reduction of a dye to a coloured formazan, in cell work by metabolically active cells.)

For `CC1(C)S[C@@H]2[C@H](NC(=O)[C@H](N)c3ccccc3)C(=O)N2[C@H]1C(=O)O` [Ampicillin, reference compound], the MIC in series [1] (VRE-faecium ATCC BAA-2316, serial dilution in MHB, 96-well, overnight 37 °C, OD 600 nm, triplicate, same results in all replicates, mass of whole conjugate, read-out: Minimum Inhibitory Concentration) was determined as 16 µg/mL; with C. albicans ATCC 10231 (Candida albicans, ATCC10231, C. albicans ATCC 10231, serial dilution in MHB, 96-well, overnight 37 °C, OD 600 nm, triplicate, same results in all replicates, mass of whole conjugate, read-out: Minimum Inhibitory Concentration), 16 µg/mL; in the series with MRSA ATCC 33591 (Staphylococcus aureus, MRSA ATCC 33591, serial dilution in MHB, 96-well, overnight 37 °C, OD 600 nm, triplicate, same results in all replicates, mass of whole conjugate, read-out: Minimum Inhibitory Concentration) it was 32 µg/mL; in the series on P. aeruginosa ATCC 27853 (Pseudomonas aeruginosa, ATCC27853, P. aeruginosa ATCC 27853, serial dilution in MHB, 96-well, overnight 37 °C, OD 600 nm, triplicate, same results in all replicates, mass of whole conjugate, read-out: Minimum Inhibitory Concentration), 256 µg/mL; in the series on S. aureus ATCC 25923 (Staphylococcus aureus, ATCC25923, S. aureus ATCC 25923, serial dilution in MHB, 96-well, overnight 37 °C, OD 600 nm, triplicate, same results in all replicates, mass of whole conjugate, read-out: Minimum Inhibitory Concentration), 8 µg/mL; in the series on E. coli ATCC 25922 (Escherichia coli, ATCC25922, E. coli ATCC 25922, serial dilution in MHB, 96-well, overnight 37 °C, OD 600 nm, triplicate, same results in all replicates, mass of whole conjugate, read-out: Minimum Inhibitory Concentration), 32 µg/mL.

For RLLRLLLRLLR-NH2 [TN6], the “MIC after plasma proteases, 0 h” value in the series on plasma proteases (0 h) was found to be 2.56 µg/mL. In the series on plasma proteases (6 h), the “MIC after plasma proteases, 6 h” value worked out at 2.56 µg/mL. The “MIC after plasma proteases, 24 h” value with plasma proteases (24 h) is reported as 5.12 µg/mL. The “Minimum Inhibitory Concentration” value was 1.56 µg/mL in [1] (ATCC BAA-2316); 1 µg/mL with C. albicans ATCC 10231 (ATCC 10231); 0.78 µg/mL in the series on MRSA ATCC 33591 (ATCC 33591); 4 µg/mL with P. aeruginosa ATCC 27853 (ATCC 27853); 1 µg/mL in the series with S. aureus ATCC 25923 (ATCC 25923); 1 µg/mL in the series on E. coli ATCC 25922 (ATCC 25922). In the series with human erythrocytes [2], the “HC50, 60 min with S. aureus ATCC 25923” value is reported as “hemotoxic effect at all doses”. For the same molecule, the “HC50 (dose killing 50% of the red blood cells), 60 min” value was “hemotoxic effect at all doses” with human erythrocytes [3] (human erythrocytes in tris-saline pH 7.2, 60 min, 37 °C, without bacteria, read at 414 nm, three replicates) and “toxic even at 1 µg/mL” in the series on human erythrocytes [3] (pH 7.2). For the same molecule, the “hemolysis, 30 min” value with human erythrocytes [3] (pH 7.2) is “well above the toxic dose (HC50)”. In addition, the CC50 at 24 h in “MTT cytotoxicity assay” was found to be 161 µg/mL. In the series “MTT cytotoxicity assay”, this molecule came in with an IC50 at 24 h of 14.6 µg/mL.

Turning to “GIGKFLHSAKKFGKAFVGEIMNS [Mag-2, reference compound]”, the CC50 at 24 h in the series “MTT cytotoxicity assay” (HaCaT cells, MTT, 24 h, 37 °C, DMEM 10% FBS, three replicates, maximum concentration tested 512 µg/mL, mass of whole conjugate, read-out: inhibitory concentration (IC50), cytotoxicity) was 258 µg/mL. Further, the IC50 at 24 h in “MTT cytotoxicity assay” (3T3 cells, MTT, 24 h, 37 °C, DMEM 10% FBS, three replicates, mass of whole conjugate, read-out: inhibitory concentration (IC50), cytotoxicity) amounted to 153 µg/mL.
